Data on 1 compound can be found in patent US10160785B2, “Antimicrobial peptides and their use for the treatment of topical infections” (priority 2015, dated 2018).

Where a SMILES comes first, the peptide text is derived from it.

Experiment [1] has as its system Staphylococcus aureus Liberec. The conditions noted are these: Staphylococcus aureus Liberec clinical isolate; 37° C., 20 h. In a few lines:
(§1)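 MIC broth microdilution, LB, ~10^5 CFU/well, peptide 0.1–100 μmol.l^−1 (twofold series). 37 °C, 20 h, continuous shaking; A540 every 15 min.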

For the next experiment, the system named is Candida albicans Olomouc. As to conditions: Candida albicans Olomouc; YPD medium; 37° C., 20 h (Example 2).
The test system of experiment [2] is Staphylococcus aureus Motol. As to conditions: Staphylococcus aureus Motol clinical isolate; 37° C., 20 h. A digest of the protocol: as §1
The test system of experiment [3] is Methicillin resistant Staphylococcus aureus (MRSA) 6271. As to conditions: 37° C., 20 h. A digest of the protocol:
as §1

The subject of a further experiment is Bacillus subtilis. The conditions noted are these: Bacillus subtilis; 37° C., 20 h. In a few lines: as §1
A further experiment relates to Micrococcus luteus. The conditions noted are these: Micrococcus luteus; 37° C., 20 h. In a few lines: as §1
In another experiment the test system is Escherichia coli. The conditions noted are these: 37° C., 20 h. A digest of the protocol:
as §1

Experiment [4] has as its system Pseudomonas aeruginosa Liberec. As to conditions: Pseudomonas aeruginosa Liberec; 37° C., 20 h. In a few lines: as §1
The subject of experiment [5] is Staphylococcus epidermidis Motol. The conditions noted are these: 37° C., 20 h. A digest of the protocol: as §1
For experiment [6], the system named is Pseudomonas aeruginosa 5482. The conditions noted are these: 37° C., 20 h. A digest of the protocol: as §1
In experiment [7] the test system is Enterococcus faecalis Motol. As to conditions: BHI medium, 37° C., 20 h.
Experiment [8] relates to P. aeruginosa (Liberec) biofilm. Nature of the experiment: Bacterial biofilm, remaining metabolic activity (MTT). It counts as cell-based, Pseudomonas aeruginosa. As to conditions: remaining metabolic activity of biofilm, 20 h. In a few lines:
(§2)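 Biofilms of S. aureus or P. aeruginosa (Liberec) were grown 24 h at 37° C with shaking in BHI plus 1% glucose from ca. 10^8 CFU/ml inocula. After washing, biofilms were exposed 20 h to peptides at 1–128 μmol.l^−1. Surviving metabolic activity was measured by MTT (40 min, formazan in DMSO, A540) as percent of untreated biofilm, blank-corrected.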

The subject of experiment [9] is S. aureus (Liberec) biofilm. Described as above. It counts as cell-based, Staphylococcus aureus. As to conditions: remaining metabolic activity of biofilm, 20 h. In a few lines:
as §2

Setting [10] is: peptide concentration 8 μmol · l^−1.
[11] abbreviates: peptide concentration 16 μmol · l^−1.
Setting [12] is: peptide concentration 32 μmol · l^−1.
The mark [13] stands for this setting: peptide concentration 64 μmol · l^−1.
The mark [14] stands for this setting: peptide concentration 128 μmol · l^−1.

On to `CCCC[C@H](NC(=O)[C@H](CC(C)C)NC(=O)[C@H](CO)NC(=O)[C@H](CO)NC(=O)[C@H](CCCC)NC(=O)[C@@H](NC(=O)CN)[C@@H](C)CC)C(=O)N[C@@H](CCCCN)C(=O)N[C@@H](CCCCN)C(=O)N[C@@H](CC(C)C)C(=O)N[C@@H](CCCCN)C(=O)N[C@@H](CCCCN)C(=O)N[C@H](C(=O)N[C@H](C(=O)N[C@@H](C)C(=O)N[C@@H](CCCCN)C(N)=O)[C@@H](C)CC)[C@@H](C)CC` [V] (HELM PEPTIDE1{G.I.[Nle].S.S.L.[Nle].K.K.L.K.K.I.I.A.K.[am]}$$$$V2.0), for which the “Antimicrobial activity MIC S. a. Liberec” value in experiment [1] is 4.0 µM. Besides, the “Antimicrobial activity MIC C. a. Olomouc” value with Candida albicans Olomouc came to 10.0 µM. Also, the “Antimicrobial activity MIC S. a. Motol” value in experiment [2] was determined as 6.7 µM. Besides, the “Antimicrobial activity MIC S. a. 6271” value in experiment [3] amounted to 12.7 µM. In addition, in the experiment with Bacillus subtilis, the “Antimicrobial activity MIC B. s.” value was found to be 3.5 µM. Further, the “Antimicrobial activity MIC M. l.” value with Micrococcus luteus was determined as 1.6 µM. Moreover, the “Antimicrobial activity MIC E. c.” value with Escherichia coli was found to be 10.0 µM. The “Antimicrobial activity MIC P. a. Liberec” value in experiment [4] turned out to be 7.9 µM. In addition, the “Antimicrobial activity MIC S. e. Motol” value in [5] was 2.5 µM. In experiment [6], the “Antimicrobial activity MIC P. a. 5482” value worked out at 4.0 µM. The “Antimicrobial activity MIC E. f. Motol” value in experiment [7] stood at 54.0 µM. The “Metabolic activity (%) P. aeruginosa (Liberec)” value was 65.5% in experiment [8] (setting [10]); 59.8% in [8] (setting [11]); 64.9% in experiment [8] (setting [12]); 61.4% in experiment [8] (setting [13]); 49.3% in experiment [8] (setting [14]). In addition, the “Metabolic activity (%) S. aureus (Liberec)” value in experiment [9] (setting [10]) came out at 83.0%; in experiment [9] (setting [11]) it was 71.0%; in experiment [9] (setting [12]), 49.5%; in [9] (setting [13]), 26.0%; in experiment [9] (setting [14]), 0.0%.
